pIC50, pKd: −log10 of the molar value. Structures can show the parent of a compound that is named as a salt. Where two headings read alike, the source gives them in different places. Starred links: 1 amine or outer side, 2 acyl side, 3 side chain; linkers in the order of their positions; H or OH if unused. Positions of bridges follow the written chain, without caps; N, C: chain ends. Non-standard residues stand in square brackets, D forms with d. Residues, ends and D or L forms follow the SMILES beside them. *: point of attachment. Trp(5-OH) = N[C@@H](Cc1c[nH]c2ccc(O)cc12)C(=O)O; X9 = CN([C@@H](CCc1cccc(Cl)c1)C(=O)[*:2])[*:1]; NMePhe(4-F) = CN[C@@H](Cc1ccc(F)cc1)C(=O)O; β2hAla(2S) = C[C@@H](CN[*:1])C(=O)[*:2]; NMehPhe = CN[C@@H](CCc1ccccc1)C(=O)O; NMeE = CN[C@@H](CCC(=O)O)C(=O)O; Aad = N[C@@H](CCCC(=O)O)C(=O)O; Gly(cPr) = N[C@H](C(=O)O)C1CC1; NMeK = CN[C@@H](CCCCN)C(=O)O; NMeDap = CN[C@@H](CN)C(=O)O; Tfa = O=C(C(F)(F)F)*
Columns and labels:
mouse HER2 (23-653) = mouse HER2 (23-653) (Mus musculus, UniProt P70424); experiment: TR-FRET competition assay for peptide potency, mouse HER2; assay type: binding; design: mouse HER2 (23-653) using a Cy5 labeled peptide as a probe; made in house; host or cells: mammalian cells; conditions: TR-FRET competition with Cy5 labeled peptide probe, 0.1 nM mouse HER2, 24 h incubation; read-out: moHER2 TR-FRET IC50
Procedure: Both proteins containing a His-, Avi-tag and biotin in Nterminus, were expressed in mammalian cells and produced in house. […] Standard assay conditions consist of 20 uL total volume in white 384-well plates (Greiner), in 10 mM HEPES buffer containing 150 mM NaCl, 3 mM EDTA, 0.05% Tween20 and 1% final DMSO. […] The ratiometric FRET assay readout is calculated from the ratio of the raw data of the two distinct fluorescence signals measured in time resolved mode (fluorescence 665 nm/fluorescence 620 nm). IC50 values were calculated with the standard Novartis in-house assay data analysis software (Helios software application, Novartis Institutes for BioMedical Research, unpublished) using the methods described in Comput. Methods. Programs. Biomed. 2006, 82, 31-37 (regression algorithms for nonlinear dose-response curve fitting).

human HER2 (23-652) = human HER2 (23-652) (Homo sapiens, UniProt P04626); experiment: Surface plasmon resonance (SPR) for assessment of peptide affinity, human HER2; assay type: binding; design: towards human HER2 (23-652) and mouse HER2 (23-653); made in house
Procedure: Each protein was immobilized either onto a SA sensorchip (Cytiva, BR-1005-31) or CM5 sensorchip (Cytiva, BR-1005-30) to a density of 800-2000 RU. […] For the assay setup the same conditions (flow rate, running buffer, peptide dilution) as described above were used. In a first step the Anti Fc IgG Ab (from Human Antibody Capture Kit, Ref. 29234600, Cytiva) was diluted into acetate pH 5.0 at 25 ug/mL and immobilized at a flow rate of 10 uL/min over 360 s to reach a density around 6000 RU. […] The peptides were tested with an association time of 280 s followed by a dissociation time of 3000 s at a flow rate of 30 uL/min. The regeneration was done using 3 M magnesium chloride regeneration solution as obtained with a contact time of 30 s at a flow rate of 10 uL/min. Curve fitting was performed using the BiacoreTM 8K evaluation software.

[1] = SPR, human HER2 extracellular domain, 25° C., 1:1 binding model, read-out: huHER2-SPR-ONC KD

Row | SMILES | pIC50 (mouse HER2 (23-653)) | pKd (human HER2 (23-652); [1]) | pKd (human HER2 (23-652))
1 | CC(=O)N[C@H]1CCCC(=O)NC[C@@H](C(=O)N(C)[C@@H](Cc2ccc(F)cc2)C(N)=O)N(C)C(=O)[C@H](C2CC2)NC(=O)[C@H](Cc2c[nH]c3ccccc23)NC(=O)[C@H](Cc2c[nH]c3ccc(O)cc23)NC(=O)[C@H](CCCCNC(=O)C(F)(F)F)N(C)C(=O)[C@H](CCc2ccccc2)N(C)C(=O)[C@H](CO)NC(=O)[C@H](Cc2ccc(O)cc2)NC1=O [Example A4, (3S,6S,9S,12S,15S,18S,21S,24S,27S)-9-((1H-indol-3-yl)methyl)-27-acetamido-N-((S)-1-amino-3-(4-fluorophenyl)-1-oxopropan-2-yl)-6-cyclopropyl-12-((5-hydroxy-1H-indol-3-yl)methyl)-24-(4-hydroxybenzyl)-21-(hydroxymethyl)-N,4,16,19-tetramethyl-5,8,11,14,17,20,23,26,31-nonaoxo-18-phenethyl-15-(4-(2,2,2-trifluoroacetamido)butyl)-1,4,7,10,13,16,19,22,25-nonaazacyclohentriacontane-3-carboxamide] (Ac-[Aad]YS[NMehPhe][NMeK](Tfa)[Trp(5-OH)]W[Gly(cPr)][NMeDap][NMePhe(4-F)]-NH2; lactam 1-9) | 7.54 | 8.05 | –
2 | CC(=O)NCCCC[C@H]1C(=O)N[C@@H](Cc2c[nH]c3ccc(O)cc23)C(=O)N[C@@H](Cc2c[nH]c3ccccc23)C(=O)N[C@@H](C2CC2)C(=O)N(C)[C@H](C(=O)N(C)[C@@H](Cc2ccc(F)cc2)C(N)=O)CNC(=O)CCC[C@H](NC(C)=O)C(=O)N[C@@H](Cc2ccc(O)cc2)C(=O)N[C@@H](CO)C(=O)N(C)[C@@H](CCc2cccc(Cl)c2)C(=O)N1C [Example A8, (3S,6S,9S,12S,15S,18S,21S,24S,27S)-9-((1H-indol-3-yl)methyl)-27-acetamido-15-(4-acetamidobutyl)-N-((S)-1-amino-3-(4-fluorophenyl)-1-oxopropan-2-yl)-18-(3-chlorophenethyl)-6-cyclopropyl-12-((5-hydroxy-1H-indol-3-yl)methyl)-24-(4-hydroxybenzyl)-21-(hydroxymethyl)-N,4,16,19-tetramethyl-5,8,11,14,17,20,23,26,31-nonaoxo-1,4,7,10,13,16,19,22,25-nonaazacyclohentriacontane-3-carboxamide] (Ac-[Aad]YS[X9][NMeK](Ac)[Trp(5-OH)]W[Gly(cPr)][NMeDap][NMePhe(4-F)]-NH2; lactam 1-9) | 8.64 | 9.00 | –
3 | CC(=O)N[C@H]1CCCC(=O)NC[C@@H](C(=O)N(C)[C@@H](Cc2ccc(F)cc2)C(=O)N[C@@H](CCCCNC(=O)CN2CCN(CC(=O)O)CCN(CC(=O)O)CCN(CC(=O)O)CC2)C(N)=O)N(C)C(=O)[C@H]([C@H](C)O)NC(=O)[C@H](Cc2c[nH]c3ccccc23)NC(=O)[C@H](Cc2c[nH]c3ccc(O)cc23)NC(=O)[C@H](CCCCNC(=O)CCO)N(C)C(=O)[C@H](CCc2ccccc2)N(C)C(=O)[C@H](CO)NC(=O)[C@H](Cc2ccc(O)cc2)NC1=O [Example C22] | – | 9.30 | –
4 | CC[N+]1=C(/C=C/C=C/C=C2/N(CCCCCC(=O)NCCOCCOCCOCCOCCOCCOCCOCCOCCOCCOCCC(=O)NCCCC[C@H](NC(=O)[C@H](Cc3ccc(F)cc3)N(C)C(=O)[C@@H]3CNC(=O)CCC[C@H](NC(C)=O)C(=O)N[C@@H](Cc4ccc(O)cc4)C(=O)N[C@@H](CO)C(=O)N(C)[C@@H](CCc4ccccc4)C(=O)N(C)[C@@H](CCCCNC(C)=O)C(=O)N[C@@H](Cc4c[nH]c5ccc(O)cc45)C(=O)N[C@@H](Cc4c[nH]c5ccccc45)C(=O)N[C@@H](C4CC4)C(=O)N3C)C(N)=O)c3ccc(S(=O)(=O)O)cc3C2(C)C)C(C)(C)c2cc(S(=O)(=O)[O-])ccc21 [Example D7] | – | – | > 10.00
5 | CC(=O)NCCCC[C@H]1C(=O)N[C@@H](Cc2c[nH]c3ccc(O)cc23)C(=O)N[C@@H](Cc2c[nH]c3ccccc23)C(=O)N[C@@H](C2CC2)C(=O)N(C)[C@H](C(=O)N(C)[C@@H](Cc2ccc(F)cc2)C(N)=O)CCC(=O)NC[C@H](C)C(=O)N[C@@H](Cc2ccc(O)cc2)C(=O)N[C@@H](CO)C(=O)N(C)[C@@H](CCc2ccccc2)C(=O)N1C [Example A22, (3S,6S,9S,12S,15S,18S,21S,24S,30S)-6-((1H-indol-3-yl)methyl)-12-(4-acetamidobutyl)-N-((S)-1-amino-3-(4-fluorophenyl)-1-oxopropan-2-yl)-3-cyclopropyl-9-((5-hydroxy-1H-indol-3-yl)methyl)-21-(4-hydroxybenzyl)-18-(hydroxymethyl)-N,1,13,16,24-pentamethyl-2,5,8,11,14,17,20,23,27-nonaoxo-15-phenethyl-1,4,7,10,13,16,19,22,26-nonaazacyclotriacontane-30-carboxamide] ([β2hAla(2S)]YS[NMehPhe][NMeK](Ac)[Trp(5-OH)]W[Gly(cPr)][NMeE][NMePhe(4-F)]-NH2; lactam N-9) | 8.00 | 8.01 | –
6 | CC[N+]1=C(/C=C/C=C/C=C2/N(CCCCCC(=O)NCCCC[C@H](NC(=O)[C@H](Cc3ccc(F)cc3)N(C)C(=O)[C@@H]3CNC(=O)CC[C@H](NC(C)=O)C(=O)N[C@@H](Cc4ccc(O)cc4)C(=O)N[C@@H](CO)C(=O)N(C)[C@@H](CCc4ccccc4)C(=O)N(C)[C@@H](CCCCNC(C)=O)C(=O)N[C@@H](Cc4c[nH]c5ccc(O)cc45)C(=O)N[C@@H](Cc4c[nH]c5ccccc45)C(=O)N[C@@H]([C@H](C)O)C(=O)N3C)C(N)=O)c3ccc(S(=O)(=O)O)cc3C2(C)C)C(C)(C)c2cc(S(=O)(=O)O)ccc21 [Example D4] | – | – | 9.40
7 | CC(=O)NCCCC[C@H]1C(=O)N[C@@H](Cc2c[nH]c3ccc(O)cc23)C(=O)N[C@@H](Cc2c[nH]c3ccccc23)C(=O)N[C@@H](C2CC2)C(=O)N(C)[C@H](C(=O)N(C)[C@@H](Cc2ccc(F)cc2)C(=O)N[C@@H](CCCCNC(=O)CN2CCN(CC(=O)O)CCN(CC(=O)O)CCN(CC(=O)O)CC2)C(N)=O)CNC(=O)CCC[C@H](NC(C)=O)C(=O)N[C@@H](Cc2ccc(O)cc2)C(=O)N[C@@H](CO)C(=O)N(C)[C@@H](CCc2ccccc2)C(=O)N1C [Example C29] | 9.70 | – | –

Further lines, with some results ahead:

Row | pIC50 (mouse HER2 (23-653)) | pKd (human HER2 (23-652); [1]) | SMILES | pKd (human HER2 (23-652))
8 | – | > 10.00 | CC[N+]1=C(/C=C/C=C/C=C2/N(CCCCCC(=O)NCCCC[C@H](NC(=O)[C@H](Cc3ccc(F)cc3)N(C)C(=O)[C@@H]3CNC(=O)CCC[C@H](NC(C)=O)C(=O)N[C@@H](Cc4ccc(O)cc4)C(=O)N[C@@H](CO)C(=O)N(C)[C@@H](CCc4ccccc4)C(=O)N(C)[C@@H](CCCCNC(C)=O)C(=O)N[C@@H](Cc4c[nH]c5ccc(O)cc45)C(=O)N[C@@H](Cc4c[nH]c5ccccc45)C(=O)N[C@@H](C4CC4)C(=O)N3C)C(N)=O)c3ccc(S(=O)(=O)O)cc3C2(C)C)C(C)(C)c2cc(S(=O)(=O)[O-])ccc21 [Example D1] | –
9 | – | 10.00 | CC[N+]1=C(/C=C/C=C/C=C2/N(CCCCCC(=O)NCCOCCOCCOCCOCCOCCOCCOCCOCCOCCOCCC(=O)N[C@H]3CCCC(=O)NC[C@@H](C(=O)N(C)[C@@H](Cc4ccc(F)cc4)C(=O)N[C@@H](CCCCNC(=O)CN4CCN(CC(=O)O)CCN(CC(=O)O)CCN(CC(=O)O)CC4)C(N)=O)N(C)C(=O)[C@H](C4CC4)NC(=O)[C@H](Cc4c[nH]c5ccccc45)NC(=O)[C@H](Cc4c[nH]c5ccc(O)cc45)NC(=O)[C@H](CCCCNC(C)=O)N(C)C(=O)[C@H](CCc4ccccc4)N(C)C(=O)[C@H](CO)NC(=O)[C@H](Cc4ccc(O)cc4)NC3=O)c3ccc(S(=O)(=O)O)cc3C2(C)C)C(C)(C)c2cc(S(=O)(=O)[O-])ccc21 [Example D6] | –

— patent US20250332300A1 (priority 2024, published 2025)
